Measurements reported in patent publication EP2068894B1, “USE OF CIS-RHENIUM (III) DI[…] FOR POTENTIATING THE A[…] OF PLATINIUM COMPLEXES” (SOCIETE DE CO[…] RECHERCHES THERAPEUTIQUES, priority 2006, dated 2007).

Experiments:
Assay type in all cases: in vivo, Wistar rats
RBC = test: Morphological forms of red blood cells in blood of tumor-bearing rats; conditions: day 21 after tumor cells inoculation; for Damaged RBC / Discocytes / Echinocytes: morphological forms of RBC in blood
Experimental: (§1) Wistar rats weighting 100-120 g were inoculated by tumor carcinoma Guerink (T8) cells (Experimental Oncology, 2003, Vol. 25, pp64-68). The cells were taken in the Institute of Oncology and Experimental Pathology by R.E.Kavetskiy (Kiev). The single intraperitoneal administration of Cisplatin at the dose of 8 mg/kg was made on the 9 day after the tumor inoculation according to the method disclosed by Taylor S.K. in Medical Hypothesis 2003; 60; n°1, pp 89-93. The intraperitoneal administration of the Re2 at the dose of 7µM/kg according to the schema of antioxidant therapy [Meerson F.Z. et al. Pat. Physiol. and Exp. Therap.(Rus) 1983;N5:25-9] in liposome forms [Sktemenko et al. Ukr.Biokhim.Journal (Ukr) 2002;74,N°6:38-43] began on the 3 day after the inoculation of the tumor cells and was repeated every 2 days until day 21. Body weights were measured from day 2 after tumor inoculation, the volume of tumors were assessed from the day 7. On the day 21 animals were sacrified under chlorophormium anesthesia and the tumors were isolated and weighted. Concentrations of hemoglobin (Hb) and quantity of red blood cells (RBC) were measured according to the method described by Chevary et al. in Laboratornoe delo (Rus) 1991;N°10:9-13
(§2) Four groups of 15 animals in each were compared: control group; group with introduction of cisplatin; group with introduction of Re2; and group with introduction of cisplatin together with Re2. Wilcoxon non parametric tests were used to compare the tumor volumes according to the absence of treatment and each group of treatment or between 2 treated groups. Growth of the tumors in control group was very rapid and reached […] and occupied approximately 1/3 of the animal weight. Dynamics of tumor growth is represented on the Figure 1.

[1] = Hemoglobin concentration in blood of tumor-bearing rats; conditions: for concentration of Hb: blood, day 21 after tumor cells inoculation, cisplatin 8 mg/kg i.p. day 9, Re2 7µM/kg i.p. every 2 days from day 3
Experimental: as §1, §2

[2] = test system: tumor carcinoma Guerink (T8) cells; test: Tumor growth in rats inoculated with tumor carcinoma Guerink (T8) cells; conditions: for Weight of isolated tumors: day 21 after tumor cells inoculation, cisplatin 8 mg/kg i.p. single on day 9, Re2 7µM/kg i.p. in liposome forms every 2 days from day 3 to day 21; for tumor growth / measured tumor volumes: in comparison to control group, volumes assessed from day 7
Experimental: as §1, §2

Row | Molecule | Damaged RBC (RBC) | Discocytes (RBC) | Echinocytes (RBC) | concentration of Hb [1] | hemoglobin, result in words ([1]; in comparison to control group, day 21) | Weight of isolated tumors [2] | tumor growth / measured tumor volumes [2] | morphological picture of RBC, result in words (RBC)
1 | N.N.[Cl][Pt][Cl] [cisplatin] | 28.65 ± 3.98% | 46.36 ± 3.18% | 24.99 ± 3.84% | 129.49 ± 12.43 g/L | significant increase in hemoglobin | 9.88 ± 9.90 g | significant decrease in measured tumor volumes | 
2 | cis-[Re2(AdCOO)2Cl4].2CH3CN | 21.53 ± 2.34% | 56.33 ± 4.32% | 22.14 ± 2.16% | 72.02 ± 11.12 g/L |  | 38.27 ± 16.77 g | did not prevent tumor growth but caused a little delay in progression of growth | supported quantities of discocytes and echinocytes on a rather high level
